Measurements published in patent publication US9677094B2, “Process of producing a fermentation product” (NOVOZYMES A/S, priority 2011, dated 2017).

Key:
[1] = system: advanced lipoxidation end-products on protein; conditions: during lipid peroxidation reactions; cited from earlier work
[2] = system: streptozotocin-induced diabetic and Zucker obese rats; conditions: cited from earlier work
[3] = system: initial stages of the Maillard reaction; conditions: conjugates of beta-lactoglobulin with galactose and tagatose; cited from earlier work
[4] = system: glycation reactions and the formation of advanced glycation end products (AGEs); conditions: cited from earlier work
Fermentis Red Star yeast = assay: Ethanol yield in fermentation (SSF) of liquefied corn mash, HPLC; type: cell-based; conditions: for EtOH: corn mash 32% DS
Protocol: Pyridoxamine (Sigma #P9380) was evaluated for its ability to increase ethanol yields from laboratory-made corn mash when added at the time of liquefaction or at the beginning of fermentation.
Liquefied mashes were made using corn and backset obtained from a commercial ethanol plant in the Midwestern United States (Corn LP, Goldfield, Iowa). All mashes contained 32% Dry Solids (DS) and were liquefied at a pH of 5.8 for 120 minutes in a water bath at 85° C., using the alpha-amylase product Liquozyme SC DS (Novozymes) at a dose of 0.02% w/w of corn. Experimental mashes were treated with pyridoxamine at doses of 10 micrograms/g DS and 50 micrograms/g DS of pyridoxamine in 110 g mash. During liquefaction, the mashes were shaken vigorously every 2 minutes for the first 20 minutes and again at 30 minute intervals until the total liquefaction time equaled 2 hours. All mashes were then frozen overnight.
To each thawed mash, urea was added to a final concentration of 1000 ppm, and penicillin was added to a final concentration of 3 ppm. To test the effects of pyridoxamine in simultaneous saccharification and fermentation (SSF), separate aliquots of liquefied mash were dosed with 10 micrograms/g DS and 50 micrograms/g DS of pyridoxamine, respectively. The mashes were fermented as follows:
For fermentation, between 4 and 5 grams of each mash was added to 6 pre-weighed tubes per treatment. […] One hundred microliters of Fermentis Red Star yeast (5.5 g yeast in 100 mL tap water incubated at 32° C. for 30 minutes) was added to each tube, and the gluocoamylase product Spirizyme Ultra™ (Novozymes) was added to each tube to achieve a dose of 0.5 AGU/g DS.
After 24 hours, one replicate from each mash was sacrificed for HPLC analysis using 50 microliters of 40% v/v H2SO4. The tubes were centrifuged at 1500×g for 10 minutes, and the supernatants were filtered using Whatman syringe filters with 0.45 micron membranes, then diluted 1:5 for HPLC analysis. The remaining samples were sacrificed after 54 hours in the same manner but were subjected to HPLC analysis without dilution. Ethanol and oligosaccharide concentrations were measured by HPLC using an HPX-87H column (Bio-Rad) heated to 65° C. with a mobile phase of 5 mM sulfuric acid at a flow rate of 0.6 ml/min, with refractive index detection at 50° C.

Cc1ncc(CO)c(CN)c1O [Pyridoxamine]
formation of advanced lipoxidation end-products on protein [1]: inhibits
development of nephropathy ([2]; both animal models): protects against the development of nephropathy
lipid-lowering effect ([2]; streptozotocin-induced diabetic and Zucker obese rats): strong lipid-lowering effect
effect on the initial stages of the Maillard reaction [3]: inhibitory effect
inhibition of glycation reactions and AGE formation [4]: can inhibit
ethanol yield versus control (Fermentis Red Star yeast; addition at the beginning of SSF (after liquefaction)): did not result in an increase in ethanol yield
ethanol yield versus control (Fermentis Red Star yeast; addition at the start of corn mash liquefaction, three of the four results (both doses of 10 and one dose of 50 micrograms/g DS)): statistically significant increase in ethanol yield
EtOH (Fermentis Red Star yeast; experiment 1, dose 10 micrograms/g DS, addition point Liq (liquefaction)): 12.19 w/v %
EtOH (Fermentis Red Star yeast; experiment 1, dose 10 micrograms/g DS, addition point SSF): 11.89 w/v %
EtOH (Fermentis Red Star yeast; experiment 1, dose 50 micrograms/g DS, addition point Liq (liquefaction)): 12.23 w/v %
EtOH (Fermentis Red Star yeast; experiment 1, dose 50 micrograms/g DS, addition point SSF): 11.79 w/v %
EtOH (Fermentis Red Star yeast; experiment 2, dose 10 micrograms/g DS, addition point Liq (liquefaction)): 12.01 w/v %
EtOH (Fermentis Red Star yeast; experiment 2, dose 10 micrograms/g DS, addition point SSF): 11.75 w/v %
EtOH (Fermentis Red Star yeast; experiment 2, dose 50 micrograms/g DS, addition point Liq (liquefaction)): 11.86 w/v %
EtOH (Fermentis Red Star yeast; experiment 2, dose 50 micrograms/g DS, addition point SSF): 11.75 w/v %
